Columns and labels:
[1] = Toxicity in Mus musculus ddY (mouse) assessed as mortality at 275 mg/kg, ip after 4 days; type: organism-based; parameters: dose 275 mg/kg, route intraperitoneal; details: in vivo
[2] = tested on: Brassica rapa subsp. oleifera; assay: Growth inhibition of Brassica rapa subsp. oleifera assessed as chlorophyll b level at 5 x 10^-5 M after 7 days; type: functional; parameters: scale not given: the % may be the effect or the level left
[3] = Toxicity in Mus musculus ddY (mouse) assessed as mortality at 200 mg/kg, ip after 2 days; type: organism-based; parameters: dose 200 mg/kg, route intraperitoneal; details: in vivo
[4] = tested on: Brassica rapa subsp. oleifera; assay: Growth inhibition of Brassica rapa subsp. oleifera assessed as root growth at 3 x 10^-4 M after 7 days; type: functional
[5] = tested on: Brassica rapa subsp. oleifera; assay: Growth inhibition of Brassica rapa subsp. oleifera assessed as chlorophyll a level at 3 x 10^-5 M after 7 days; type: functional; parameters: scale not given: the % may be the effect or the level left
[6] = Toxicity in ip dosed Mus musculus ddY (mouse) assessed as mortality after 1 to 7 days; type: organism-based; details: in vivo
[7] = Toxicity in Mus musculus ddY (mouse) assessed as mortality at 225 mg/kg, ip after 3 days; type: organism-based; parameters: dose 225 mg/kg, route intraperitoneal; details: in vivo
[8] = Toxicity in Mus musculus ddY (mouse) assessed as mortality at 300 mg/kg, ip after 1 day; type: organism-based; parameters: dose 300 mg/kg, route intraperitoneal; details: in vivo
[9] = Toxicity in Mus musculus ddY (mouse) assessed as mortality at 225 mg/kg, ip after 2 days; type: organism-based; parameters: dose 225 mg/kg, route intraperitoneal; details: in vivo
[10] = Toxicity in Mus musculus ddY (mouse) assessed as mortality at 325 mg/kg, ip after 5 days; type: organism-based; parameters: dose 325 mg/kg, route intraperitoneal; details: in vivo
[11] = tested on: Brassica rapa subsp. oleifera; assay: Growth inhibition of Brassica rapa subsp. oleifera assessed as total chlorophyll level at 3 x 10^-5 M after 7 days; type: functional; parameters: scale not given: the % may be the effect or the level left
[12] = Toxicity in Mus musculus ddY (mouse) assessed as mortality at 200 mg/kg, ip after 6 days; type: organism-based; parameters: dose 200 mg/kg, route intraperitoneal; details: in vivo
[13] = Toxicity in Mus musculus ddY (mouse) assessed as mortality at 300 mg/kg, ip after 6 days; type: organism-based; parameters: dose 300 mg/kg, route intraperitoneal; details: in vivo
[14] = Toxicity in Mus musculus ddY (mouse) assessed as mortality at 200 mg/kg, ip after 7 days; type: organism-based; parameters: dose 200 mg/kg, route intraperitoneal; details: in vivo
[15] = tested on: Brassica rapa subsp. oleifera; assay: Growth inhibition of Brassica rapa subsp. oleifera assessed as chlorophyll a level at 1 x 10^-4 M after 7 days; type: functional; parameters: scale not given: the % may be the effect or the level left
[16] = Toxicity in Mus musculus ddY (mouse) assessed as mortality at 250 mg/kg, ip after 7 days; type: organism-based; parameters: dose 250 mg/kg, route intraperitoneal; details: in vivo
[17] = Toxicity in Mus musculus ddY (mouse) assessed as mortality at 300 mg/kg, ip after 2 days; type: organism-based; parameters: dose 300 mg/kg, route intraperitoneal; details: in vivo
[18] = Toxicity in Mus musculus ddY (mouse) assessed as mortality at 250 mg/kg, ip after 4 days; type: organism-based; parameters: dose 250 mg/kg, route intraperitoneal; details: in vivo
[19] = Toxicity in Mus musculus ddY (mouse) assessed as mortality at 275 mg/kg, ip after 6 days; type: organism-based; parameters: dose 275 mg/kg, route intraperitoneal; details: in vivo
[20] = Toxicity in Mus musculus ddY (mouse) assessed as mortality at 225 mg/kg, ip after 1 day; type: organism-based; parameters: dose 225 mg/kg, route intraperitoneal; details: in vivo
[21] = Toxicity in Mus musculus ddY (mouse) assessed as mortality at 325 mg/kg, ip after 6 days; type: organism-based; parameters: dose 325 mg/kg, route intraperitoneal; details: in vivo
[22] = Toxicity in Mus musculus ddY (mouse) assessed as mortality at 300 mg/kg, ip after 3 days; type: organism-based; parameters: dose 300 mg/kg, route intraperitoneal; details: in vivo
[23] = Toxicity in Mus musculus ddY (mouse) assessed as mortality at 200 mg/kg, ip after 5 days; type: organism-based; parameters: dose 200 mg/kg, route intraperitoneal; details: in vivo
[24] = tested on: Brassica rapa subsp. oleifera; assay: Growth inhibition of Brassica rapa subsp. oleifera assessed as total chlorophyll level at 5 x 10^-5 M after 7 days; type: functional; parameters: scale not given: the % may be the effect or the level left
[25] = Toxicity in Mus musculus ddY (mouse) assessed as mortality at 300 mg/kg, ip after 5 days; type: organism-based; parameters: dose 300 mg/kg, route intraperitoneal; details: in vivo
[26] = tested on: Brassica rapa subsp. oleifera; assay: Growth inhibition of Brassica rapa subsp. oleifera assessed as total chlorophyll level at 1 x 10^-4 M after 7 days; type: functional; parameters: scale not given: the % may be the effect or the level left
[27] = tested on: Brassica rapa subsp. oleifera; assay: Growth inhibition of Brassica rapa subsp. oleifera assessed as root growth at 1 x 10^-4 M after 7 days; type: functional
[28] = Toxicity in Mus musculus ddY (mouse) assessed as mortality at 225 mg/kg, ip after 4 days; type: organism-based; parameters: dose 225 mg/kg, route intraperitoneal; details: in vivo
[29] = Toxicity in Mus musculus ddY (mouse) assessed as mortality at 250 mg/kg, ip after 1 day; type: organism-based; parameters: dose 250 mg/kg, route intraperitoneal; details: in vivo
[30] = Toxicity in Mus musculus ddY (mouse) assessed as mortality at 275 mg/kg, ip after 7 days; type: organism-based; parameters: dose 275 mg/kg, route intraperitoneal; details: in vivo
[31] = Toxicity in Mus musculus ddY (mouse) assessed as mortality at 250 mg/kg, ip after 3 days; type: organism-based; parameters: dose 250 mg/kg, route intraperitoneal; details: in vivo
[32] = Toxicity in Mus musculus ddY (mouse) assessed as mortality at 225 mg/kg, ip after 7 days; type: organism-based; parameters: dose 225 mg/kg, route intraperitoneal; details: in vivo
[33] = Toxicity in Mus musculus ddY (mouse) assessed as mortality at 250 mg/kg, ip after 5 days; type: organism-based; parameters: dose 250 mg/kg, route intraperitoneal; details: in vivo
[34] = Toxicity in Mus musculus ddY (mouse) assessed as mortality at 325 mg/kg, ip after 3 days; type: organism-based; parameters: dose 325 mg/kg, route intraperitoneal; details: in vivo
[35] = Toxicity in Mus musculus ddY (mouse) assessed as mortality at 325 mg/kg, ip after 7 days; type: organism-based; parameters: dose 325 mg/kg, route intraperitoneal; details: in vivo
[36] = tested on: Brassica rapa subsp. oleifera; assay: Growth inhibition of Brassica rapa subsp. oleifera assessed as root growth at 3 x 10^-5 M after 7 days; type: functional
[37] = Toxicity in Mus musculus ddY (mouse) assessed as mortality at 325 mg/kg, ip after 1 day; type: organism-based; parameters: dose 325 mg/kg, route intraperitoneal; details: in vivo
[38] = Toxicity in Mus musculus ddY (mouse) assessed as mortality at 200 mg/kg, ip after 3 days; type: organism-based; parameters: dose 200 mg/kg, route intraperitoneal; details: in vivo
[39] = Toxicity in Mus musculus ddY (mouse) assessed as mortality at 225 mg/kg, ip after 5 days; type: organism-based; parameters: dose 225 mg/kg, route intraperitoneal; details: in vivo
[40] = Toxicity in Mus musculus ddY (mouse) assessed as mortality at 225 mg/kg, ip after 6 days; type: organism-based; parameters: dose 225 mg/kg, route intraperitoneal; details: in vivo
[41] = Toxicity in Mus musculus ddY (mouse) assessed as mortality at 275 mg/kg, ip after 5 days; type: organism-based; parameters: dose 275 mg/kg, route intraperitoneal; details: in vivo
[42] = Toxicity in Mus musculus ddY (mouse) assessed as mortality at 200 mg/kg, ip after 1 day; type: organism-based; parameters: dose 200 mg/kg, route intraperitoneal; details: in vivo
[43] = Toxicity in Mus musculus ddY (mouse) assessed as mortality at 275 mg/kg, ip after 2 days; type: organism-based; parameters: dose 275 mg/kg, route intraperitoneal; details: in vivo
[44] = tested on: Brassica rapa subsp. oleifera; assay: Growth inhibition of Brassica rapa subsp. oleifera assessed as total chlorophyll level at 3 x 10^-4 M after 7 days; type: functional; parameters: scale not given: the % may be the effect or the level left
[45] = Toxicity in Mus musculus ddY (mouse) assessed as mortality at 275 mg/kg, ip after 1 day; type: organism-based; parameters: dose 275 mg/kg, route intraperitoneal; details: in vivo
[46] = Toxicity in Mus musculus ddY (mouse) assessed as mortality at 325 mg/kg, ip after 2 days; type: organism-based; parameters: dose 325 mg/kg, route intraperitoneal; details: in vivo
[47] = Toxicity in Mus musculus ddY (mouse) assessed as mortality at 300 mg/kg, ip after 7 days; type: organism-based; parameters: dose 300 mg/kg, route intraperitoneal; details: in vivo
[48] = tested on: Brassica rapa subsp. oleifera; assay: Growth inhibition of Brassica rapa subsp. oleifera assessed as chlorophyll a level at 3 x 10^-4 M after 7 days; type: functional; parameters: scale not given: the % may be the effect or the level left
[49] = Toxicity in Mus musculus ddY (mouse) assessed as mortality at 275 mg/kg, ip after 3 days; type: organism-based; parameters: dose 275 mg/kg, route intraperitoneal; details: in vivo
[50] = tested on: Brassica rapa subsp. oleifera; assay: Growth inhibition of Brassica rapa subsp. oleifera assessed as root growth at 5 x 10^-5 M after 7 days; type: functional
[51] = Toxicity in Mus musculus ddY (mouse) assessed as mortality at 250 mg/kg, ip after 2 days; type: organism-based; parameters: dose 250 mg/kg, route intraperitoneal; details: in vivo
[52] = tested on: Brassica rapa subsp. oleifera; assay: Growth inhibition of Brassica rapa subsp. oleifera assessed as chlorophyll b level at 1 x 10^-4 M after 7 days; type: functional; parameters: scale not given: the % may be the effect or the level left
[53] = Toxicity in Mus musculus ddY (mouse) assessed as mortality at 325 mg/kg, ip after 4 days; type: organism-based; parameters: dose 325 mg/kg, route intraperitoneal; details: in vivo
[54] = Toxicity in Mus musculus ddY (mouse) assessed as mortality at 200 mg/kg, ip after 4 days; type: organism-based; parameters: dose 200 mg/kg, route intraperitoneal; details: in vivo
[55] = tested on: Brassica rapa subsp. oleifera; assay: Growth inhibition of Brassica rapa subsp. oleifera assessed as chlorophyll a level at 5 x 10^-5 M after 7 days; type: functional; parameters: scale not given: the % may be the effect or the level left
[56] = Toxicity in Mus musculus ddY (mouse) assessed as mortality at 300 mg/kg, ip after 4 days; type: organism-based; parameters: dose 300 mg/kg, route intraperitoneal; details: in vivo
[57] = tested on: Brassica rapa subsp. oleifera; assay: Growth inhibition of Brassica rapa subsp. oleifera assessed as chlorophyll b level at 3 x 10^-4 M after 7 days; type: functional; parameters: scale not given: the % may be the effect or the level left
[58] = tested on: Brassica rapa subsp. oleifera; assay: Growth inhibition of Brassica rapa subsp. oleifera assessed as chlorophyll b level at 3 x 10^-5 M after 7 days; type: functional; parameters: scale not given: the % may be the effect or the level left
[59] = Toxicity in Mus musculus ddY (mouse) assessed as mortality at 250 mg/kg, ip after 6 days; type: organism-based; parameters: dose 250 mg/kg, route intraperitoneal; details: in vivo

CN1C(=O)CSC1=S [3-METHYL-RHODANINE]
mortality at 96 h [1]: 80% | Activity [2]: 4.44% | mortality at 48 h [3]: 0% | Activity [4]: 37.5 mm | Activity [5]: 15.09% | LD50 [6]: 255 mg/kg | mortality at 72 h [7]: 20% | mortality at 24 h [8]: 40% | mortality at 48 h [9]: 20% | mortality at 120 h [10]: 100% | Activity [11]: 19.75% | mortality at 144 h [12]: 0% | mortality at 144 h [13]: 80% | mortality at 168 h [14]: 0% | Activity [15]: 15.61% | mortality at 168 h [16]: 40% | mortality at 48 h [17]: 80% | mortality at 96 h [18]: 40% | mortality at 144 h [19]: 80% | mortality at 24 h [20]: 20% | mortality at 144 h [21]: 100% | mortality at 72 h [22]: 80% | mortality at 120 h [23]: 0% | Activity [24]: 18.62% | mortality at 120 h [25]: 80% | Activity [26]: 20.44% | Activity [27]: 52.7 mm | mortality at 96 h [28]: 20% | mortality at 24 h [29]: 20% | mortality at 168 h [30]: 80% | mortality at 72 h [31]: 40% | mortality at 168 h [32]: 20% | mortality at 120 h [33]: 40% | mortality at 72 h [34]: 100% | mortality at 168 h [35]: 100% | Root length [36]: 56.2 mm | mortality at 24 h [37]: 60% | mortality at 72 h [38]: 0% | mortality at 120 h [39]: 20% | mortality at 144 h [40]: 20% | mortality at 120 h [41]: 80% | mortality at 24 h [42]: 0% | mortality at 48 h [43]: 80% | Activity [44]: 14.29% | mortality at 24 h [45]: 20% | mortality at 48 h [46]: 60% | mortality at 168 h [47]: 80% | Activity [48]: 10.77% | mortality at 72 h [49]: 80% | Root length [50]: 53.9 mm | mortality at 48 h [51]: 20% | Activity [52]: 4.85% | mortality at 96 h [53]: 100% | mortality at 96 h [54]: 0% | Activity [55]: 14.2% | mortality at 96 h [56]: 80% | Activity [57]: 3.53% | Activity [58]: 4.67% | mortality at 144 h [59]: 40%

— ChEMBL document CHEMBL3044763, “Inhibitory Activities of Rhodanine Derivatives on Plant Growth” (Biosci Biotechnol Biochem, 1996)
